This is an account of results in article PMC6791878, “Evaluation of integrin αvβ6 cystine knot PET tracers to detect cancer and idiopathic pulmonary fibrosis” (Nature Communications, 2019).

One data set has as its system pancreatic cancer. Nature of the data set: [18F]FP-R01-MG-F2 vs [18F]FDG PET/CT in a pancreatic cancer patient (Stanford). Conditions: one patient. The method, then: The line was flushed with at least 10 ml normal saline after injection. • Blood samples for blood time activity measurements were taken at 1, 3, 5, and 10 min after tracer administration and then at 30-minute intervals for up to 3 h after tracer injection. The counts in whole blood and plasma were measured by gamma counter (Perkin Elmer Wizard 1470). […] The scan was performed over the abdominal region to include the pancreas. Attenuation correction was employed via CT (120 kV, 10 mA). […] The scan was performed over the chest region. Attenuation correction was employed via CT (120 kV, 10 mA). • Static total-body (vertex-to-toe) PET/CT scans were acquired at 60 min and 120 min post injection. CT was performed at 120 kV; it was dose-modulated based on body habitus with current ranging from 10-105 mA for the 60-minute scan. […] EKG data was analyzed to assess changes in overall rhythm of the heart. • On the day of the study, participants were asked to void frequently to reduce radiation exposure. Urine samples were collected at prior to tracer administration (baseline), prior to the static PE scans, at the end of the study day 1, and at the follow up visits 1 day and 7 days after tracer administration.
Upon co-registration of the PET and CT images, the CT images were used to determine regions of interest for the organs or tissues reported in the manuscript. These ROIs were applied to the PET images of the brain, pituitary gland, breast, lower and upper large intestine, small intestine, stomach, pancreas, heart wall, liver, lung, muscle, red marrow, bone, skin, and thyroid gland. For high uptake organs such as the kidneys, bladder and for the whole body, threshold-based segmentation of PET images were used to determine a close-fitting ROI around the entire organ or whole body. In order to determine accuracy, these PET-derived ROIs were compared to the CT overlay for a close match.

The next data set concerns cervical cancer. Nature of the data set: [18F]FDG PET/CT (PUMC Hospital). Format: in vivo, human. Conditions: second cervical cancer patient. The method, then: All patients were instructed to avoid strenuous work or exercise for at least 24 h prior to the scheduled study date. Study participants were also instructed to fast for at least 4 h before intravenous administration of the PET tracer. Patients were administered [^18F]FDG at a dosage of 5.55 MBq (0.15 mCi) per kilogram body weight. Immediately after tracer administration, patients were allowed to rest and relax in a warm, darkened room for approximately 45–60 min. Next, each patient emptied their bladder. The PET scan that followed spanned a region from the mid-thigh area to the base of the skull (six bed positions, 2 min bed^−1).

The target in data set [1] is T1, human integrin αvβ6 (Homo sapiens, UniProt P06756+P18564, DEL708-788).
T1 construct: purchased R&D Systems
T1 sequence (P06756 31-992 limits assumed, stated change not applied): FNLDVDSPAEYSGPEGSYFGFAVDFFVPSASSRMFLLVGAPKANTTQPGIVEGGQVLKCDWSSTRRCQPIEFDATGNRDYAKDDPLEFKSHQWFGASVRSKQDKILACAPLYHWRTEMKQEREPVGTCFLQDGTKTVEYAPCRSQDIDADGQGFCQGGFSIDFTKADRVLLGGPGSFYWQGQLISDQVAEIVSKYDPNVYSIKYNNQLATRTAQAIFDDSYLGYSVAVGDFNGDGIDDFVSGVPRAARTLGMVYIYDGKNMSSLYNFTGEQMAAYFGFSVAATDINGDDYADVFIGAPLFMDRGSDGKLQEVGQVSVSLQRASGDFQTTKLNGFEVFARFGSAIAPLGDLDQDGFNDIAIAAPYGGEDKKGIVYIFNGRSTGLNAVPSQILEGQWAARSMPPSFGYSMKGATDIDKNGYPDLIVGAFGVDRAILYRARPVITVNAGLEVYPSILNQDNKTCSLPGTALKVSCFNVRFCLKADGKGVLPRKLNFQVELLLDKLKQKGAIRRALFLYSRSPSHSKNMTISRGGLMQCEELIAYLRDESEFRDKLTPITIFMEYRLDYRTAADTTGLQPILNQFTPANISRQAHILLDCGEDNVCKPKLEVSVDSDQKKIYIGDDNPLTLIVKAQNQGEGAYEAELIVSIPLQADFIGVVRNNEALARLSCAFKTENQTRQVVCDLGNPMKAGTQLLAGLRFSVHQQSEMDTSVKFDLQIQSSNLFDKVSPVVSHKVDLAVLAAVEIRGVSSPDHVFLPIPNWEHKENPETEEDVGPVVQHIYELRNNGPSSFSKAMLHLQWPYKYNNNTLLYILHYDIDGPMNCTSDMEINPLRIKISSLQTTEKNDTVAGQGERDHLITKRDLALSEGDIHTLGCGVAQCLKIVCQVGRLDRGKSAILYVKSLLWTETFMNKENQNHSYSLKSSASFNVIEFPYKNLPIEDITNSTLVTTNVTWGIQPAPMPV
T1 sequence (P18564 22-707 limits assumed, stated change not applied): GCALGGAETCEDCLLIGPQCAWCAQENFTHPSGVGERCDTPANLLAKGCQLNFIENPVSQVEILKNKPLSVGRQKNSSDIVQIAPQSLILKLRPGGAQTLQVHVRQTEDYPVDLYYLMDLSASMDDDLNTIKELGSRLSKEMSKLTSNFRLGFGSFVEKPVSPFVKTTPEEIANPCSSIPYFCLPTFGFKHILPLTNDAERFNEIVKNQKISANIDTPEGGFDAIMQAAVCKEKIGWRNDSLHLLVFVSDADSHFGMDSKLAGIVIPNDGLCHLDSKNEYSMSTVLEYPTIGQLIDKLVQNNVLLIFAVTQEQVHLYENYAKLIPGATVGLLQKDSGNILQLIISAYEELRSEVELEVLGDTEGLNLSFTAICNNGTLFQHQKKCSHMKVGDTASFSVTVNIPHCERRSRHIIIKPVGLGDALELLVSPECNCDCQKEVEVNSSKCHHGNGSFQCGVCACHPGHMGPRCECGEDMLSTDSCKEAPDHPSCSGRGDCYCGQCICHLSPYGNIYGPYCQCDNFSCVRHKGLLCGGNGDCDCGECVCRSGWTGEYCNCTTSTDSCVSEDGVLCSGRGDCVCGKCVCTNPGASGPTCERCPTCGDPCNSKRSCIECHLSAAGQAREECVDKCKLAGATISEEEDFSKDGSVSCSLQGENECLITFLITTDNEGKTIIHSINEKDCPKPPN
Nature of the data set: Equilibrium binding of yeast-displayed knottins to soluble integrin αvβ6 (two-colour flow cytometry, KD).

Data set [2] deals with T1, human integrin αvβ6. Further details: method as in Kimura et al., Clin. Can. Res., 2012. The following applies: ref Kimura et al., Clin. Can. Res., 2012; cited from earlier work.

Values joined by “and” are separate entries in the source; they are usually repeats but may differ in a detail not shown here. Equal entries are not always repeated. Where two headings read alike, the source gives them in different places.

Regarding `OC[C@H]1OC(O)[C@H]([18F])[C@@H](O)[C@@H]1O` (stereo partly shown) [[^18F]FDG, reference compound], in the data set with pancreatic cancer (1 h p.i.), the “SUVmean, liver” value turned out to be 2.9; the “SUVmean, small intestines” value came to 2.5; the “SUVmean, stomach” value is reported as 0.16. In the data set on pancreatic cancer (~1 h p.i.), the “SUVmean, pancreatic tumor” value is 4.1 and ~ 4. For the same compound, the “SUVmean, cervical tumor” value in the data set with cervical cancer stood at 4.1.

Usually Kd stands for a measure of binding affinity in units of concentration. Consider `CC[C@H](C)[C@@H]1NC(=O)[C@@H](NC(=O)CN)CSSC[C@@H]2NC(=O)[C@H](C)NC(=O)CNC(=O)[C@@H]3CCCN3C(=O)[C@@H]3CSSC[C@@H](C(=O)NCC(N)=O)NC(=O)[C@H](Cc4ccc(O)cc4)NC(=O)CNC(=O)[C@H](CC(N)=O)NC(=O)CNC(=O)[C@H](CCCNC(=N)N)NC(=O)[C@H](CSSC[C@H](NC(=O)[C@H](CCCNC(=N)N)NC(=O)[C@H](Cc4ccccc4)NC(=O)[C@H](CC(C)C)NC(=O)[C@H](CC(C)C)NC(=O)[C@H]([C@@H](C)O)NC(=O)CNC(=O)[C@H](CC(C)C)NC(=O)[C@H](CC(=O)O)NC(=O)[C@H]([C@@H](C)O)NC(=O)[C@H](CCCNC(=N)N)NC(=O)[C@H](CCSC)NC(=O)[C@H](CC(N)=O)NC(=O)[C@H](CC(C)C)NC1=O)C(=O)N[C@@H](CCCNC(=N)N)C(=O)N[C@@H](CCCNC(=N)N)C(=O)N[C@@H](CC(=O)O)C(=O)N[C@@H](CO)C(=O)N[C@@H](CC(=O)O)C(=O)N3)NC(=O)[C@H]([C@@H](C)CC)NC2=O` [R01], for which the values for the Kd on human integrin αvβ6 [1] and on human integrin αvβ6 [2] were roughly 1 nM and roughly 3 nM, respectively.
